# Assay results: US20040102454A1, “Phenylahistin and the phenylahistin analogs, a new class of anti-tumor compounds” (priority 1998, published 2004)
# Experiments:
# OVCAR-8 = assay: HCC panel assay, sulforhodamine B; assay type: cell-based; details: OVCAR-8, Ovary, (−)-PLH content 24.1%
# Method: (§1) The antitumor activity of PLH was evaluated by the Human Cancer Cell Line Panel (HCC panel) assay, see Yamori T., Jap. J Cancer Chemother., (1997), 24, 129-35. This HCC panel consists of 38 tumor cell lines including 7 lung cancer, 6 stomach, 6 colon, 5 ovary, 6 central nerve system, 5 breast, 2 kidney and 1 melanoma cell lines. Each tumor cell was seeded in 96-well tissue culture plates and incubated overnight. Various concentrations (5 doses; final 10^−4, 10^−5, 10^−6, 10^−7 and 10^−8 M) of PLH were added, and the cells were incubated for 48 hours. […] All mice were obtained from Japan SLC (Shizuoka, Japan), P388 leukemia cells were obtained from Dainippon Pharmaceuticals Inc. (Osaka, Japan), Lewis Lung Carcinoma from Riken Cell Bank (Tsukuba, Japan), and Colon 26 cells from the National Cancer Center, Japan (Tokyo, Japan).
# WiDr = assay: HCC panel assay, sulforhodamine B; assay type: cell-based; details: Colon, (−)-PLH content 24.1%
# Method: as §1
# MKN28 = assay: HCC panel assay, sulforhodamine B; assay type: cell-based; details: MKN28, Stomach, (−)-PLH content 24.1%
# Method: as §1
# OVCAR-3 = assay: HCC panel assay, sulforhodamine B; assay type: cell-based
# Method: as §1
# SF-295 = assay: HCC panel assay, sulforhodamine B; assay type: cell-based; details: SF-295, CNS, (−)-PLH content 24.1%
# Method: as §1
# HBC-4 = assay: HCC panel assay, sulforhodamine B; assay type: cell-based; details: HBC-4, Breast, (−)-PLH content 24.1%
# Method: as §1
# A549 = assay: HCC panel assay, sulforhodamine B; assay type: cell-based; details: A549, Lung, (−)-PLH content 24.1%
# Method: as §1
# HCT-116 = assay: HCC panel assay, sulforhodamine B; assay type: cell-based; details: HCT-116, Colon, (−)-PLH content 24.1%
# Method: as §1
# LOX-IMVI = assay: HCC panel assay, sulforhodamine B; assay type: cell-based; details: Melanoma, (−)-PLH content 24.1%
# Method: as §1
# MCF-7 = assay: HCC panel assay, sulforhodamine B; assay type: cell-based; details: MCF-7, Breast, (−)-PLH content 24.1%
# Method: as §1
# BSY-1 = assay: HCC panel assay, sulforhodamine B; assay type: cell-based; details: BSY-1, Breast, (−)-PLH content 24.1%
# Method: as §1
# NCI-H460 = assay: HCC panel assay, sulforhodamine B; assay type: cell-based; details: NCI-H460, Lung, (−)-PLH content 24.1%
# Method: as §1
# NCI-H23 = assay: HCC panel assay, sulforhodamine B; assay type: cell-based; details: NCI-H23, Lung, (−)-PLH content 24.1%
# Method: as §1
# U251 = assay: HCC panel assay, sulforhodamine B; assay type: cell-based; details: U251, CNS, (−)-PLH content 24.1%
# Method: as §1
# HBC-5 = assay: HCC panel assay, sulforhodamine B; assay type: cell-based; details: HBC-5, Breast, (−)-PLH content 24.1%
# Method: as §1
# NCI-H522 = assay: HCC panel assay, sulforhodamine B; assay type: cell-based; details: NCI-H522, Lung, (−)-PLH content 24.1%
# Method: as §1
# DMS273 = assay: HCC panel assay, sulforhodamine B; assay type: cell-based; details: DMS273, Lung, (−)-PLH content 24.1%
# Method: as §1
# ACHN = assay: HCC panel assay, sulforhodamine B; assay type: cell-based; details: Renal, (−)-PLH content 24.1%
# Method: as §1
# [1] = test system: microtubules in A549 cells; assay: Immunofluorescence staining of microtubules; assay type: cell-based, human; details: 6 hours incubation
# Method: Immunocytochemical staining was performed using the method described by Yahara, I. et al., Cell (1978) 15, 251-259. A549 cells were cultured on glass coverslips and incubated with the test drug for 6 hours. The cells were then fixed with 3.7% formaldehyde for 30 min, permeabilized with 0.2% Triton X-100 for 5 min, and incubated with a mouse monoclonal antibody against α-tubulin (Calbiochem®, Oncogene Research Products, Cambridge, Mass.), followed by incubation with fluorescein isothiocyanate-conjugated goat anti-mouse IgG from Cosmo Bio Co., (Tokyo, Japan), and the cells were examined under an immunofluorescent microscope.
# [2] = Homo sapiens, read-out: GL50 (the source's name)
# [3] = Homo sapiens, read-out: LC50 (the source's name)
compound,measurement,setting,value
"C=CC(C)(C)c1[nH]cnc1/C=C1\NC(=O)[C@H](Cc2ccccc2)NC1=O (racemic) [PLH, phenylahistin]",IC50,OVCAR-8; [2],520 nM
same,CC50,OVCAR-8; [3],> 100000 nM
same,TGI,OVCAR-8,56000 nM
same,TGI,WiDr,790 nM
same,IC50,WiDr; [2],270 nM
same,CC50,WiDr; [3],> 100000 nM
same,IC50,"MKN28; Homo sapiens, MKN-28, read-out: GL50 (the source's name)",420 nM
same,CC50,"MKN28; Homo sapiens, MKN-28, read-out: LC50 (the source's name)",> 100000 nM
same,TGI,MKN28,>100000 nM
same,CC50,"OVCAR-3; Homo sapiens, OVCAR-3, read-out: LC50",> 100000 nM
same,IC50,"OVCAR-3; Homo sapiens, OVCAR-3, Ovary, (−)-PLH content 24.1%, read-out: GL50 (the source's name)",3000 nM
same,TGI,"OVCAR-3; OVCAR-3, Ovary, (−)-PLH content 24.1%",>100000 nM
same,IC50,SF-295; [2],320 nM
same,CC50,SF-295; [3],> 100000 nM
same,TGI,SF-295,2400 nM
same,TGI,HBC-4,>100000 nM
same,IC50,"HBC-4; Homo sapiens, HBC4, read-out: GL50 (the source's name)",460 nM
same,CC50,"HBC-4; Homo sapiens, HBC4, read-out: LC50 (the source's name)",> 100000 nM
same,TGI,A549,>100000 nM
same,IC50,A549; [2],970 nM
same,CC50,A549; [3],> 100000 nM
same,TGI,HCT-116,>100000 nM
same,IC50,HCT-116; [2],480 nM
same,CC50,HCT-116; [3],> 100000 nM
same,IC50,LOX-IMVI; [2],1300 nM
same,CC50,LOX-IMVI; [3],> 100000 nM
same,TGI,LOX-IMVI,>100000 nM
same,IC50,"MCF-7; Homo sapiens, MCF7, read-out: GL50 (the source's name)",470 nM
same,CC50,"MCF-7; Homo sapiens, MCF7, read-out: LC50 (the source's name)",> 100000 nM
same,TGI,MCF-7,>100000 nM
same,TGI,BSY-1,670 nM
same,IC50,BSY-1; [2],230 nM
same,CC50,BSY-1; [3],> 100000 nM
same,IC50,NCI-H460; [2],410 nM
same,CC50,NCI-H460; [3],> 100000 nM
same,TGI,NCI-H460,>100000 nM
same,IC50,NCI-H23; [2],910 nM
same,CC50,NCI-H23; [3],> 100000 nM
same,TGI,NCI-H23,92000 nM
same,IC50,"U251; Homo sapiens, U-251, read-out: GL50 (the source's name)",440 nM
same,CC50,"U251; Homo sapiens, U-251, read-out: LC50 (the source's name)",> 100000 nM
same,TGI,U251,10000 nM
same,TGI,HBC-5,>100000 nM
same,IC50,"HBC-5; Homo sapiens, HBC5, read-out: GL50 (the source's name)",600 nM
same,CC50,"HBC-5; Homo sapiens, HBC5, read-out: LC50 (the source's name)",> 100000 nM
same,IC50,NCI-H522; [2],250 nM
same,CC50,NCI-H522; [3],> 100000 nM
same,TGI,NCI-H522,810 nM
same,TGI,DMS273,>100000 nM
same,IC50,"DMS273; Homo sapiens, DMS-273, read-out: GL50 (the source's name)",290 nM
same,CC50,"DMS273; Homo sapiens, DMS-273, read-out: LC50 (the source's name)",> 100000 nM
same,IC50,ACHN; [2],28000 nM
same,CC50,ACHN; [3],> 100000 nM
same,TGI,ACHN,>100000 nM
C=CC(C)(C)c1[nH]cnc1/C=C1\NC(=O)[C@H](Cc2ccccc2)NC1=O [(−)-phenylahistin],microtubule structure (anti α-tubulin staining),[1],disappearance of the microtubule network
